This note sets out measurements from US4387087A, “Cationic lipophilic complexes of ^99m Tc and their use for myocardial and hepatobiliary imaging” (priority 1980, dated 1983).

Values joined by “and” are separate entries in the source; they are usually repeats but may differ in a detail not shown here. Identical values can stand only once.

Format in all cases: in vivo
A short description of data set [1]: Myocardial imaging in a normal mongrel dog (Examples 4 and 5). The protocol: For example, time dependent scintiscans of the chest region of a patient can be used. A computer interface, 16 crystal, Ohio Nuclear Spectrometer, is used for these scans and about 5 mCi of a given radiopharmaceutical is injected; blood samples are concurrently collected via an indwelling intravenous catheter in order to determine blood clearance rates. Time dependent tissue distribution studies are then conducted.

Data set [2] in a line: Tissue distribution studies using normal female Sprague-Dawley rats (Table 1).
Data set [3] can be described thus: Hepatobiliary imaging in a mongrel dog (Example 6, FIGS. 1 and 2). The protocol: FIG. 2 is a schematic describing the photograph of FIG. 1. Both the photograph and accompanying schematic were taken after the complex had cleared the blood (5 minutes after injection), entered the liver and started clearing the liver and entering the gallbladder (10 minutes after injection).
The title complex was injected in the same vehicle as in Example 4 into a mongrel dog and images were obtained by positioning a camera directly over the chest of the dog.

Data set [4] is described as follows: Time dependent myocardial and gallbladder distributions, computer analysis of scintigraphic data (Example 7, FIG. 3). The conditions noted are these: dog. The protocol: FIG. 3 compares the gallbladder uptake and heart clearing of 99m-Tc (diars)2 Cl2^+ with that of 99m-Tc (diars)2 Br2^+.
(§1) The two title complexes were injected into a dog as described for the complex of Example 4. […] These differences are graphically illustrated in FIG. 3, wherein are plotted time dependent myocardial and gallbladder distributions obtained by computer analysis of scintigraphic data; data for a given complex are normalized, but comparative data between complexes are not.

Data set [5] is described as follows: Blood clearance curves (Example 7, FIG. 4). The note with it: dog.
Source text: It is clear that these two chemically similar agents are somewhat differentiated in the biological system.
Imaging of the myocardium or the hepatobiliary system can then be carried out (after waiting for appropriate periods of time to permit blood clearance of the radiopharmaceutical), by standard scanning techniques (Andres, J. T. et al., "Nuclear Medicine", Wiley & Sons, N.Y., 1977; "Basic Science Principles of Nuclear Medicine", Boyd, C. M. and Dalrymple, G. V., eds., Morby, St. Louis, 1974). For example, time dependent scintiscans of the chest region of a patient can be used. A computer interface, 16 crystal, Ohio Nuclear Spectrometer, is used for these scans and about 5 mCi of a given radiopharmaceutical is injected; blood samples are concurrently collected via an indwelling intravenous catheter in order to determine blood clearance rates. Time dependent tissue distribution studies are then conducted.
as §1

Turning to `C[P+]1(C)CC[P+](C)(C)[99Tc-3]12([Br])([Br])[P+](C)(C)CC[P+]2(C)C` [[99m-Tc(DMPE)2 Br2]^+, [99m-Tc(DMPE)2 Br2]Br], the “Myocardial uptake by the heart” value in data set [1] (same conditions as Example 4) is recorded as “Myocardial uptake by the heart of a normal mongrel dog was observed”.

Take “trans-[Tc-99m(diars)2 Br2 ]Br [trans-[Tc(diars)2 Br2]Br]”: in data set [2] (10 min post dose), the Blood is 0.38(3) % of the dose/g, the “Femur Muscle” value was 0.22(6) % of the dose/g, the Kidney is 3.1(6) % of the dose/g and the Liver is reported as 4.5(6) % of the dose/g. For the same compound, in data set [2] (10 min post dose), the Pancreas was 1.0(3) % of the dose/g. The Heart in data set [2] (10 min post dose, 10 min) is 2.3(5) % of the dose/g and 2.3 % of the dose/g. Besides, in data set [2] (30 min post dose), the Blood was 0.27(3) % of the dose/g, the “Femur Muscle” value is on record as 0.29(3) % of the dose/g, the Heart is on record as 1.8(1) % of the dose/g and the Kidney is recorded as 2.3(1) % of the dose/g. Further, in data set [2] (30 min post dose), the Liver is recorded as 2.9(6) % of the dose/g and the Pancreas is 1.2(2) % of the dose/g. In data set [2] (60 min post dose), the Blood is on record as 0.21(1) % of the dose/g, the “Femur Muscle” value is 0.26(5) % of the dose/g, the Heart is recorded as 1.3(1) % of the dose/g and the Kidney is given as 2.1(1) % of the dose/g. Moreover, in data set [2] (60 min post dose), the Liver was 2.7(3) % of the dose/g and the Pancreas was 0.9(1) % of the dose/g. Moreover, in data set [2] (120 min post dose), the Blood was 0.18(3) % of the dose/g, the “Femur Muscle” value is 0.28(2) % of the dose/g, the Heart is 1.0(1) % of the dose/g and the Kidney was 1.9(1) % of the dose/g. Besides, in data set [2] (120 min post dose), the Liver is 2.1(2) % of the dose/g and the Pancreas is 0.8(1) % of the dose/g. Besides, in data set [1], the “removal of the bulk of the activity” value is reported as “The bulk of the activity is taken out by the hepatobiliary system”. The “maximal myocardial uptake, time post injection” value in data set [1] (50% ethanol/50% saline vehicle) is listed as “about 20 minutes”. In data set [1] (high sensitivity colimator), the “visualization of the myocardium” value was “clearly visualizing the myocardium”. In addition, the “complex in the blood pool” value in data set [3] (0 minutes, immediately after injection) was “most of the complex is in the blood pool which is predominantly in the heart chambers”. For the same compound, in data set [3] (1 minute after injection), the “clearance from the blood” value is “begins to clear from the blood”, the gallbladder uptake result was “The gallbladder does not yet contain any activity” and the liver uptake entry is given as “starts to enter the liver”. In data set [3] (5 minutes), the “clearance from the blood” value is reported as “The complex is all gone from the blood”, the gallbladder uptake result is “A small amount has begun to enter the gallbladder”, the heart image result is reported as “the heart image has disappeared” and the liver uptake entry was “most of it is in the liver”. Also, the gallbladder uptake entry in data set [3] (10 minutes) was “The gallbladder has taken up most of the complex and appears brighter than even the liver”. In data set [3] (20 minutes), the gallbladder uptake entry is on record as “The gallbladder has taken up the bulk of the complex” and the liver activity entry was “the liver contains relatively little activity”. For the same compound, in data set [3] (30 minutes, FIGS. 1 and 2), the gallbladder uptake result was “the gallbladder has taken up the bulk of the complex” and the liver activity result was “the liver contains relatively little activity”. For the same compound, in data set [3] (FIGS. 1 and 2), the “time after injection at which the complex had cleared the blood” value came out at 5 min; the “time after injection at which the complex started clearing the liver and entering the gallbladder” value was found to be 10 min. Further, in data set [4] (FIG. 3), the “gallbladder handling of the two agents” value was “the gallbladder handles these two agents differently”. In addition, in data set [4] (intravenous), the “gallbladder uptake (rate)” value was “relatively slow” and the “time post intravenous injection at which the myocardium is readily visualized” value was 20 to 40 min. The “Blood clearance curves, comparison of the two complexes” value in data set [5] was “biologically differentiated”.
